{
  "source": "patent US20240410831A1",
  "about": "“Multi-Mode Zinc-Selective Emission-Ratiometric Fluorescent Probes for Biological Application” (Georgia Tech Research Corporation, priority 2023, published 2024)",
  "origin": "cited, not measured here",
  "key": {"[1]": {"conditions": "pH 7.0, 25° C.; read-out: Kd for Zn(II) of competing ligand; cited from earlier work"}, "[2]": {"conditions": "in 1.0 N H2SO4; cited from earlier work"}},
  "note": "Where a name gives a salt, the structure may show the parent alone.",
  "data": [
    {"smiles": "O=C(O)CN(CCOCCOCCN(CC(=O)O)CC(=O)O)CC(=O)O", "note": "[EGTA, ethyleneglycol-bis(β-aminoethyl)-N,N,N′,N′-tetraacetic acid]", "values": [
      {"measurement": "Kd", "setting": "[1]", "value": 4.6, "unit": "nM"}
    ]},
    {"smiles": "C=C[C@H]1C[N@@]2CC[C@H]1C[C@H]2[C@H](O)c1ccnc2ccc(OC)cc12", "note": "[quinine sulfate]", "values": [
      {"measurement": "quantum yield of reference standard", "setting": "[2]", "value": 0.546}
    ]}
  ]
}
